Key:
[1] = system: spleen cells from Leishmania major infected BALB/c mice; assay: Th1:Th2 response in non-healing leishmaniasis model, spleen cells ex vivo; format: cell-based; details: for IFN-γ: Table 10.1
[2] = system: α-D-glucosidase; assay: Glycosidase inhibition: α-D-glucosidase, Bacillus; format: biochemical, Bacillus stearothermophilus; details: 1 mg/ml
Procedure: (§1) All enzymes were purchased from Sigma, as were the appropriate p-nitrophenyl substrates. Assays were carried out in microtitre plates. Enzymes were assayed in 0.1M citric acid/0.2M di-sodium hydrogen phosphate (McIlvaine) buffers at the optimum pH for the enzyme. All assays were carried out at 20° C. For screening assays the incubation assay consisted of 10 μl of enzyme solution, 10 μl of inhibitor solution (made up in water) and 50 μl of the appropriate 5 mM p-nitrophenyl substrate (3.57 mM final conc.) made up in McIlvaine buffer at the optimum pH for the enzyme.
(§2) The reactions were stopped with 0.4M glycine (pH 10.4) during the exponential phase of the reaction, which was determined at the beginning of the assay using blanks with water, which were incubated for a range of time periods to measure the reaction rate using 5 mM substrate solution. Endpoint absorbances were read at 405 nm with a Biorad microtitre plate reader (Benchmark). Water was substituted for the inhibitors in the blanks.

[3] = system: spleen cells; assay: Cytokine modulation in spleen cells (IFN-γ); format: cell-based, BALB/c mice; details: Table 3.1
Procedure: BALB/c male and female mice bred and maintained at the University of Strathclyde under conventional conditions were used at varying age.
Cells suspensions were prepared by using the end of a syringe and grinding the spleen through a wire mesh. The cell suspension was then centrifuged at 1000 rpm for 5 minutes. To remove the erythrocytes, the cell pellet was resuspended in Boyle's solution (Tris 0.17M & Ammonium Chloride 0.16M) and centrifuged again for 5 minutes. The pellet was then washed in medium a further two times, then resuspended in 3 mls medium. A cell count was then carried out.
All spleen cell experiments were carried out in 96-well tissue culture plates. […] Unstimulated wells contained 100 μl of cells and 100 μl of medium. The stimulated wells contained 100 μl of cells plus 50 μl of LPS at 1 μg/ml or 50 μl anti-CD3 at 0.5 μg/ml and 50 μl of medium. The remaining wells contained 100 μl cells, 5 μl of MNLP compound and either 50 μl of anti-CD3 or medium alone.
The appropriate Mabs and standards were used according to the protocol described for IL-12 (described in Example 1, above).

[4] = system: glycosidase enzymes of Table 4.1; assay: Glycosidase inhibition screening, whole enzyme panel; format: biochemical; details: 1 mg/ml
Procedure: as §1, §2

[5] = biological target: T1, α-D-mannosidase (Canavalia ensiformis, UniProt C0HJB3); assay: Glycosidase inhibition: α-D-mannosidase; format: biochemical, Jack beans (Canavalia ensiformis); details: read-out: % inhibition, mannosidase
T1 construct: purchased Sigma
T1 sequence (C0HJB3 whole entry): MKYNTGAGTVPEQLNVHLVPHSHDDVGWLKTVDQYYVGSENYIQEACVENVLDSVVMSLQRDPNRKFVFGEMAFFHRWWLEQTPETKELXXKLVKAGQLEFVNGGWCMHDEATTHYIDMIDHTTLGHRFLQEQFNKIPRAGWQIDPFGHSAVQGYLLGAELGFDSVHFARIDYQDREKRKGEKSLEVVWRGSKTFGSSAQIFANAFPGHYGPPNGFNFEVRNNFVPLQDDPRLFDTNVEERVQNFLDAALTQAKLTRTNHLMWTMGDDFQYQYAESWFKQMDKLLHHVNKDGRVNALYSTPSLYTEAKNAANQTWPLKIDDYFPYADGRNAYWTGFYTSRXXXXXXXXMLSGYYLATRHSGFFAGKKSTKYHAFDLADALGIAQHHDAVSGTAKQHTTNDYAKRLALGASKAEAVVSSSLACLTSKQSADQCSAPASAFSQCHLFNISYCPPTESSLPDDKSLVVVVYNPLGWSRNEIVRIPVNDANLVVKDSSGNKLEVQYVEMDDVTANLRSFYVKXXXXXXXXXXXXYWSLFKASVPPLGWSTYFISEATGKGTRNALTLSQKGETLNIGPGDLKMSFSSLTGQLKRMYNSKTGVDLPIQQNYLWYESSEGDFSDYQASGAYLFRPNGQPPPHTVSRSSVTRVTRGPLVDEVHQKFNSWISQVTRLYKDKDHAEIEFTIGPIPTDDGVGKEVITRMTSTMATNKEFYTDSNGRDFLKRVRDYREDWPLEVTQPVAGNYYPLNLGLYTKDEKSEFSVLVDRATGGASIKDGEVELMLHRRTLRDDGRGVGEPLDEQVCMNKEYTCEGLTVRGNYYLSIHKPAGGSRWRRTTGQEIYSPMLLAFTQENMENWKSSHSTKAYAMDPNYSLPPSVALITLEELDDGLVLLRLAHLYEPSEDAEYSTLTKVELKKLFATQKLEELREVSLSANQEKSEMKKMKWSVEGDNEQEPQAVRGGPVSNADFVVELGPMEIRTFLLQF
Procedure: All enzymes were purchased from Sigma, as were the appropriate p-nitrophenyl substrates. Assays were carried out in microtitre plates. Enzymes were assayed in 0.1M citric acid/0.2M di-sodium hydrogen phosphate (McIlvaine) buffers at the optimum pH for the enzyme. All assays were carried out at 20° C.
Endpoint absorbances were read at 405 nm with a Biorad microtitre plate reader (Benchmark). Water was substituted for the inhibitors in the blanks.

[6] = system: N-acetyl-β-D-glucosaminidase; assay: Glycosidase inhibition: N-acetyl-β-D-glucosaminidase; format: biochemical, Bovine; details: 1 mg/ml
Procedure: as §1, §2

[7] = system: dendritic cells; details: treatment alone
[8] = system: Naringinase; assay: Glycosidase inhibition: Naringinase; format: biochemical, Penecillium decumbens; details: 1 mg/ml
Procedure: as §1, §2

[9] = biological target: T2, α-L-fucosidase (Bos taurus, UniProt Q2KIM0); assay: Glycosidase inhibition: α-L-fucosidase; format: biochemical, Bovine; details: 1 mg/ml; read-out: % inhibition, fucosidase
T2 construct: purchased Sigma
T2 sequence (Q2KIM0 23-468): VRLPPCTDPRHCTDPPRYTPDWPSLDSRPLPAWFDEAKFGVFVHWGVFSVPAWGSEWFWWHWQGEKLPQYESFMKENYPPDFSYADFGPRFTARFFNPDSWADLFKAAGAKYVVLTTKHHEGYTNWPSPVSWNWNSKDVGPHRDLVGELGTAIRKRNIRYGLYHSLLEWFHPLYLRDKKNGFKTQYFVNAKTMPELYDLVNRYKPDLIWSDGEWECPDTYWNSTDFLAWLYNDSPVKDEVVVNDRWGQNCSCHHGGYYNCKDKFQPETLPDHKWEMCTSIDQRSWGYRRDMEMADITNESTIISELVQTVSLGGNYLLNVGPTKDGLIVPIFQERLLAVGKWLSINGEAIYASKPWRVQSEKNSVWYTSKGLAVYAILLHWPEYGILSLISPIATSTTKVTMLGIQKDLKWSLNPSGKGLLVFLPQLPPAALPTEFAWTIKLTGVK
Procedure: as §1, §2

[10] = system: Influenza vaccine-specific IgG, IgG1 and IgG2a; design: species or system Balb/c mice; details: mouse, in vivo
[11] = system: β-D-glucosidase; assay: Glycosidase inhibition: β-D-glucosidase, almond; format: biochemical, Almonds (Prunus sp.); details: 1 mg/ml
Procedure: as §1, §2

[12] = biological target: T3, α-D-glucosidase (Oryza sativa subsp. japonica, UniProt Q653V7); assay: Glycosidase inhibition: α-D-glucosidase, rice; format: biochemical, rice (Oryza sativa); details: 1 mg/ml; read-out: % inhibition, gluc (rice)
T3 construct: purchased Sigma
T3 sequence (Q653V7 34-885): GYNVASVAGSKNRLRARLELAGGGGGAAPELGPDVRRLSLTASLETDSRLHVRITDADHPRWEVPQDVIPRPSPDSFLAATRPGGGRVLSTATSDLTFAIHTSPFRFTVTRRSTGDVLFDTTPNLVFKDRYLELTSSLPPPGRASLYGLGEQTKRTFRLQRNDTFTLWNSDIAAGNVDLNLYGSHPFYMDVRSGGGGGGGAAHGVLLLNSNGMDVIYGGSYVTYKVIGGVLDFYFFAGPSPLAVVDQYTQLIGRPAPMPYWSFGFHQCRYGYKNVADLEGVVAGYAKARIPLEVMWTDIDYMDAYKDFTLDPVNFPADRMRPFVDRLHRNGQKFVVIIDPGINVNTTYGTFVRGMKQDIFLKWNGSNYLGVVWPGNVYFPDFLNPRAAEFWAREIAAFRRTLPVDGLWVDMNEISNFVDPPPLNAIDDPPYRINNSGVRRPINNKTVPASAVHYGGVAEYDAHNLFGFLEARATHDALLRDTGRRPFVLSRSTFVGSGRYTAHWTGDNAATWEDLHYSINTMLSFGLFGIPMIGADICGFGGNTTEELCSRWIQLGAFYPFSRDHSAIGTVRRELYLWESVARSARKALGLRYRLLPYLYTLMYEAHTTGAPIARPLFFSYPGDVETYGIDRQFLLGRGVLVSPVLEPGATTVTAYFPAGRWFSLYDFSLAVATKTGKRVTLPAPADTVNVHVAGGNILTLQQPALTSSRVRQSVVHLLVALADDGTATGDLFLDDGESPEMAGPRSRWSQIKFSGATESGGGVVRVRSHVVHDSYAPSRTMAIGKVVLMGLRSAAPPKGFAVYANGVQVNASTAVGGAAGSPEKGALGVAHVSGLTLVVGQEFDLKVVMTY
Procedure: as §1, §2

OC[C@H]1[C@@H](O)[C@H](O)[C@H]2[C@@H](O)[C@@H](O)CN21 [3,7-diepi-casuarine (10), (1R,2R,3S,6S,7R,7aR)-3-(hydroxymethyl)-1,2,6,7-tetrahydroxypyrolizidine]
IFN-γ ([1]; + L. major Ag): 5.5 ng/mL | IFN-γ ([1]; treatment alone): ~0.5 ng/mL | IL-5 ([1]; Table 10.2, + αCD3): 150 pg/mL | Th2-skewed immune response profile ([1]; ex vivo): clearly reversed | % inhibition, gluc (Bacillus) [2]: −7% | IFN-γ ([3]; + αCD3): 13.50 ng/mL | IFN-γ ([3]; treatment alone): 0.22 ng/mL | inhibition of the enzymes tested [4]: do not significantly inhibit any of the enzymes tested | inhibition at 1000 µg/mL [5]: 8% | % inhibition, N-acetyl-β-gluc [6]: −6% | IL-2 [7]: 0.00 units/ml | % inhibition, Naringinase [8]: 6% | inhibition at 1000 µg/mL [9]: 5% | influenza-specific IgG1 response versus vaccine alone [10]: statistically significant increased | influenza-specific IgG2a responses versus vaccine alone [10]: No significant differences | influenza-specific IgGtotal response versus vaccine alone [10]: statistically significant increased | % inhibition, glucosidase [11]: 5% | inhibition at 1000 µg/mL [12]: 7%

— patent US20090117083A1, “IMMUNOMODULATORY ALKALOIDS” (M N L PHARMA LIMITED, priority 2004, published 2009)
